Results taken from patent EP1614683B1, “Indazole compounds and pharmaceutical compositions for inhibiting protein kinases, and methods for their use” (priority 1999, dated 2001).
Read-outs that look alike come from different tables or passages of the source.

Experiments:
in vivo = settings: mouse, plasma, pH 2.3
[1] = for AUCleast: mouse, in vivo, pH 2.3
[2] = test system: VEGF dependent retinal vascular development; assay: In vivo assay of retinal vascular development in neonatal rats; set-up: species or system rat
Procedure: The development of the retinal vascular in rats occurs from postnatal day 1 to postnatal day 14 (P1-P14). […] To assess the ability of specific compounds to inhibit the activity of VEGF in vivo, compounds were formulated in an appropriate vehicle, usually 50% polyethylene glycol, average molecular weight 400 daltons, and 50% solution of 300 mM sucrose in deionized water. […] Six days after the intravitreal injection, the animals were sacrificed and the retinas dissected free from the remaining ocular tissue. […] The individual retinas are then flat-mount onto glass slides and examined to determine the extent of vascularization. […] The amount of vessel regression was used to assess the relative potency of the compounds after in vivo administration.
For more quantitative analysis of regression, images of ADPase-stained, flat-mounted retinas were captured with a digital camera attached to a dissecting microscope. Retinal images were then imported into an image analysis software (Image Pro Plus 4.0, Media Cybernetics, Silver Spring, MD). The software was employed to determine the percentage of the area of the retina that contained stained vessels. This value for the experimental eye was compared to that measured for the vehicle injected, contralateral eye from the same animal. The reduction in the vascular area seen in the eye that received compound as compared to the vehicle-injected eye was then expressed as the "percent regression" for that sample.

in vitro = in vitro ADME, human; settings: 2 h
Summary of the method: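 HLM diluted to 5 mg/mL in 100 mM KPO4, preincubated 10 min at 37 °C with NADPH-regenerating system. Compound (5 µM final) incubated at 37 °C in triplicate, sampled at 0 and 2 h into ice-cold acetonitrile, then LC-MS analysis.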

LCK tyrosine kinase = LCK tyrosine kinase (Homo sapiens, UniProt P06239, C224D/P223M); assay: LCK spectrophotometric assay; assay type: biochemical; settings: Table 1; compound concentration 1 µM; read-out: Lck-P* (% inhibition)
Procedure: The spectrophotometric assay was carried out as described above for VEGF-R2, except for the following changes in concentration: LCK = 60 nM, MgCl2 = 0 mM, poly(E4Y1) = 20 mM.

[3] = target: unphosphorylated VEGF-R2Δ50 (Homo sapiens, UniProt P35968, DEL940-989/E990V); assay: biochemical; settings: read-out: FLVK ** (% inhibition)
human FGF-R1 = human FGF-R1 (Homo sapiens, UniProt P11362, C488A/C584S/L457V); assay: FGF-R spectrophotometric assay; assay type: biochemical; settings: Table 1; compound concentration 1 µM; read-out: FGF-P* (% inhibition)
Procedure: The spectrophotometric assay was carried out as described above for VEGF-R2, except for the following changes in concentration: FGF-R = 50 nM, ATP = 2 mM, and poly(E4Y1) =15 mM.

[4] = test system: human umbilical vein endothelial cells (HUVEC); assay: HUVEC proliferation assay (VEGF-stimulated, MTT); assay type: cell-based; settings: Homo sapiens, HUVEC, Table 1
[5] = IP, 25 mg/kg, vehicle PEG400:H2O pH 2.3 30:70
[6] = PO, 50 mg/kg, vehicle PEG400:H2O pH 2.3 30:70
[7] = PO, 50 mg/kg, vehicle PEG400:H2O pH 2.3 60:40
[8] = Model P8, intravitreal, 5 mg/ml, vehicle PEG/water 50:50
[9] = + albumin, read-out: HUVEC + albumin IC50
[10] = human liver microsomes, 5 µM test compound, 37 °C

Chain of human FGF-R1 (P11362 456-766 L457V/C488A/C584S): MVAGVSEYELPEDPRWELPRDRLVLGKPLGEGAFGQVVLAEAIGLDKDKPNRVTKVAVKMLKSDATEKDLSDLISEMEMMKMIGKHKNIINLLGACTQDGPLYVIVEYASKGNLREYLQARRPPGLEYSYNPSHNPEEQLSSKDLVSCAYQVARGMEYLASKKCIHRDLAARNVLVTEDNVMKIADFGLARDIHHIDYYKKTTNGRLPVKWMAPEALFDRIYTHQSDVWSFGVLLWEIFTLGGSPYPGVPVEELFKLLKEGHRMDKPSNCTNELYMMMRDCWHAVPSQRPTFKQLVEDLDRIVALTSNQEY
Chain of LCK tyrosine kinase (P06239 223-509 P223M/C224D): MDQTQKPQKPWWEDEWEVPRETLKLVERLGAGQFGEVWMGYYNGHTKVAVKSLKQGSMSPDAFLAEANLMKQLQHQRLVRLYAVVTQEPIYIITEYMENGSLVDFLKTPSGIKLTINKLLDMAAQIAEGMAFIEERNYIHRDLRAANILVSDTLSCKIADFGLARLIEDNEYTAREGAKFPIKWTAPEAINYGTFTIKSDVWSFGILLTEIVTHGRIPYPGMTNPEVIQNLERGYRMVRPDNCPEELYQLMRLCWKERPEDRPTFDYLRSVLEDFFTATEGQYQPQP
Chain of unphosphorylated VEGF-R2Δ50 (P35968 with tags, fused parts or gaps DEL940-989/E990V limits assumed): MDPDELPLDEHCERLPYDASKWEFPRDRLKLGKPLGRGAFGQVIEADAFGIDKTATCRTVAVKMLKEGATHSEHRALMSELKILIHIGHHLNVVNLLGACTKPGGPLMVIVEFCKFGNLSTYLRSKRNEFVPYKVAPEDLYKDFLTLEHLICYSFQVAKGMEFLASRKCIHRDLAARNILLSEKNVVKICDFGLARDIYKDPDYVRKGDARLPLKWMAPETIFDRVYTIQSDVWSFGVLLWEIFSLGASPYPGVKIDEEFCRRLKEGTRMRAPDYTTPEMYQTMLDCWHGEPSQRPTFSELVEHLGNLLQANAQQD

SMILES | % Inhibition [2, 8] [%] | inhibition at 1 µM (LCK tyrosine kinase) [%] | inhibition at 1 µM (human FGF-R1) [%] | IC50 [4, 9] [nM] | % remain (HLM, 2 h) (in vitro; [10]) [%] | other results
CCn1nc(C)cc1C(=O)Nc1cccc(C(=O)c2ccc3c(/C=C/c4ccccn4)n[nH]c3c2)c1 [41 (a)] | – | – | – | – | – | AUC (in vivo; ip, 25 mg/kg): 92800 ng·h/mL; AUC (in vivo; po, 50 mg/kg): 49000 ng·h/mL; T1/2 [1, 5]: 2.9 h; T1/2 [1, 6]: 3.4 h; % Inhibition ([2]; Model P8, intravitreal, 1 mg/ml, vehicle PEG/water 50:50): 4%
CC(=O)c1ccc(C(=O)Nc2cccc(C(=O)c3ccc4c(/C=C/c5ccccn5)n[nH]c4c3)c2)s1 [41 (e)] | 8 | – | – | – | – | AUC (in vivo; ip, 25 mg/kg): 4900 ng·h/mL; AUC (in vivo; po, 50 mg/kg): 302 ng·h/mL; T1/2 ([1]; IP, 25 mg/kg, vehicle PEG400:H2O pH 2.3 60:40): 1.6 h; Cmin (7 hr conc.) [1, 7]: 7 ng/mL; T1/2 [1, 7]: 1.6 h
CC1CC1C(=O)Nc1cccc(C(=O)c2ccc3c(/C=C/c4ccccn4)n[nH]c3c2)c1 (stereo not drawn) [41 (h)] | – | – | – | – | – | AUC (in vivo; ip, 25 mg/kg): 26900 ng·h/mL; AUC (in vivo; po, 50 mg/kg): 4680 ng·h/mL; T1/2 [1, 5]: 1.2 h; Cmin (7 hr conc.) [1, 6]: 7 ng/mL; T1/2 [1, 6]: 0.7 h; % Inhibition ([2]; Model P8, intravitreal, 5 mg/ml, vehicle PEG/water 70:30): 0%
O=C(c1cccc(NC(=O)c2ccc(Cl)s2)c1)c1ccc2c(/C=C/c3ccccn3)n[nH]c2c1 [41 (o)] | 2 | – | – | – | – | AUC (in vivo; po, 50 mg/kg): 14700 ng·h/mL; T1/2 [1, 6]: 1.7 h
Cc1cc(C(=O)Nc2cccc(C(=O)c3ccc4c(/C=C/c5ccccn5)n[nH]c4c3)c2)n(C)n1 [41 (p)] | 35 | – | – | – | – | AUC (in vivo; ip, 25 mg/kg): 4150 ng·h/mL; T1/2 [1, 5]: 5.5 h
CCCn1nc(C)cc1C(=O)Nc1cccc(C(=O)c2ccc3c(/C=C/c4ccccn4)n[nH]c3c2)c1 [41 (r)] | – | – | – | – | – | AUCleast ([1]; ip, 25 mg/kg): > 23752 ng·h/mL; AUCleast ([1]; po, 50 mg/kg): > 17789 ng·h/mL; Initial Evaluation [2, 8]: +/++ var
C#CCNC(=O)c1ccccc1Nc1ccc2c(/C=C/c3ccccn3)n[nH]c2c1 [Example 39(b), 6-[2-(Prop-2-ynylcarbamoyl)phenylamino]-3-E-[2-(pyridin-2-yl)ethenyl]-1H-indazole] | 9 | – | – | – | – | % remain (HLM, 2 h) (in vitro; human, microsomes, 5 µM): 67%
Cc1cc(C(=O)Nc2cc(Nc3ccc4c(/C=C/c5ccccn5)n[nH]c4c3)ccc2F)n(C)n1 [Example 49(a), 6-[N-(3-((1,3-Dimethyl-1H-pyrazol-5-yl)carboxamido)-4-fluorophenyl)amino]-3-E-[2-(pyridin-2-yl)ethenyl]-1H-indazole] | 54 | – | – | – | – | –
Cc1cc(C(=O)Nc2cc(Nc3ccc4c(/C=C/c5ccccn5)n[nH]c4c3)ccc2C)n(C)n1 [Example 49(b), 6-[N-(3-((1,3-Dimethyl-1H-pyrazol-5-yl)carboxamido)-4-methylphenyl)amino]-3-E-[2-(pyridin-2-yl)ethenyl]-1H-indazole] | 5 | 9 | 80 | – | – | inhibition at 0.05 µM [3]: 98%
CS(=O)(=O)c1ccc(C(=O)Nc2cccc(Oc3ccc4c(/C=C/c5ccccn5)n[nH]c4c3)c2)s1 [Reference Example 31(c), 6-[3-((5-methylsulfonylthien-2-yl)carboxamido)phenoxy]-3-E-[2-(pyridin-2-yl)ethenyl]-1H-indazole] | – | 81 | 98 | 11.4 | 87 | Initial Evaluation [2, 8]: +/++ var
O=C(Nc1cccc(Oc2ccc3c(/C=C/c4c[nH]cn4)n[nH]c3c2)c1)c1ccccc1 [Reference Example 32(a), 6-[3-benzamidophenoxy]-3-E-[2-(1H-imidazol-4-yl)ethenyl]-1H-indazole] | – | 86 | 96 | 4.5 | – | AUC (in vivo; ip, 25 mg/kg): > 20600 ng·h/mL; AUC (in vivo; po, 50 mg/kg): 4190 ng·h/mL; IC50 ([4]; read-out: HUVEC IC50): 0.16 nM; % Inhibition ([2]; Model P9, intravitreal, 5 mg/ml, vehicle PEG/water 50:50): 20%
O=C(NCC(F)(F)F)c1ccccc1Sc1ccc2c(/C=C/c3ccccn3)n[nH]c2c1 [Reference Example 33(f), 6-[2-(2,2,2-trifluoroethylcarbamoyl)phenylsulfanyl]-3-E-[2-(pyridin-2-yl)ethenyl]-1H-indazole] | 20 | – | – | 17 | 31 | –
CCCNC(=O)c1ccccc1Sc1ccc2c(/C=C/c3ccccn3)n[nH]c2c1 [Reference Example 35(a), 6-[2-(n-Propylcarbamoyl)phenylsulfanyl]-3-E-[2-(pyridin-2-yl)ethenyl]-1H-indazole] | 4 | 12 | 59 | 2.1 | 33 | inhibition at 0.05 µM [3]: 76%
O=C(NC1CCC1)c1ccccc1Sc1ccc2c(/C=C/c3ccccn3)n[nH]c2c1 [Reference Example 35(c), 6-[2-(Cyclobutylcarbamoyl)phenylsulfanyl]-3-E-[2-(pyridin-2-yl)ethenyl]-1H-indazole] | 0 | 11 | 42 | 6.3 | 17 | inhibition at 0.05 µM [3]: 76%
C=CCONC(=O)c1ccccc1Sc1ccc2c(/C=C/c3ccccn3)n[nH]c2c1 [Reference Example 35(j), 6-[2-(Allyloxycarbamoyl)phenylsulfanyl]-3-E-[2-(pyridin-2-yl)ethenyl]-1H-indazole] | 7 | – | – | – | – | –
O=C(NCC1CC1)c1ccccc1Sc1ccc2c(/C=C/c3ccccn3)n[nH]c2c1 [Reference Example 35(v), 6-[2-(Cyclopropylmethyl-carbamoyl)phenylsulfanyl]-3-E-[2-(pyridin-2-yl)ethenyl]-1H-indazole] | 20 | 11 | 59 | 22 | 26 | inhibition at 0.05 µM [3]: 72%
Cc1cc(C(=O)Nc2cccc(C(=O)c3ccc4c(/C=C/c5ccccn5)n[nH]c4c3)c2)n[nH]1 [Reference Example 41(g), 6-[3-((5-methyl-1H-pyrazol-3-yl)carboxamido)benzoyl]-3-E-[2-(pyridin-2-yl)ethenyl]-1H-indazole] | 37 | 36 | 95 | > 10 | 52 | IC50 ([4]; read-out: HUVEC IC50): 0.9 nM
O=C(c1cccc(NC(=O)C2CC2)c1)c1ccc2c(/C=C/c3ccccn3)n[nH]c2c1 [Reference Example 41(k), 6-[3-(cyclopropylcarboxamido)benzoyl]-3-E-[2-(pyridin-2-yl)ethenyl]-1H-indazole] | 1 | 20 | 49 | 48 | – | –
Cc1cc(C(=O)Nc2cccc(C(=O)c3ccc4c(/C=C/c5ccccn5)n[nH]c4c3)c2)on1 [Reference Example 41(m), 6-[3-((3-methylisoxazol-5-yl)carboxamido)benzoyl]-3-E-[2-(pyridin-2-yl)ethenyl]-1H-indazole] | 10 | 40 | 67 | 23 | 0 | –
Cc1cc(C(=O)Nc2cc(C(=O)c3ccc4c(/C=C/c5ccccn5)n[nH]c4c3)c(C)cc2C)n(C)n1 [Reference Example 41(mm), 6-[2,4-dimethyl-5-((1,3-dimethyl-1H-Pyrazol-5-yl)carboxamido)benzoyl]-3-E-[2-(pyridin-2-yl)ethenyl]-1H-indazole] | – | – | – | – | – | Initial Evaluation [2, 8]: + (one plus being detectable regression judged to be approximately 25 percent or less)
Cn1nc(C(C)(C)C)cc1C(=O)Nc1cccc(C(=O)c2ccc3c(/C=C/c4ccccn4)n[nH]c3c2)c1 [Reference Example 41(n), 6-[3-((3-t-butyl-1-methyl-1H-pyrazol-5-yl)carboxamido)benzoyl]-3-E-[2-(pyridin-2-yl)ethenyl]-1H-indazole] | 2 | 66 | 87 | – | 70 | –
